From patent publication US20200361895A1, “NOVEL SULFONAMIDE CARBOXAMIDE COMPOUNDS” (Inflazome Limited, priority 2017, published 2020) come the findings set out here.

The target in assay [1] is T1, NLRP3 (Homo sapiens, UniProt Q96P20). The assay can be described thus: THP-1 cells pyroptosis assay (LPS + nigericin, resazurin readout; THP IC50). It is filed as cell-based. Also on record: Seed THP-1 cells (25,000 cells/well) containing 1.0 μg/ml LPS in 40 μl of RPMI medium; host or cells: THP-1 cells. The method, boiled down: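 IC50 from 4-parameter fit of resazurin fluorescence (100 μM, 1-2 hrs), reflecting surviving cells after pyroptosis. LPS-primed (1 μg/ml) THP-1 cells in FBS-free RPMI got compound for 3 hrs at 37° C (top 10 μM, half-log, 8 points), then nigericin 5 μM for 1 hr.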
On the technique in general: Alamar Blue is a resazurin reagent that responds to reducing activity.

The target in assay [2] is T1, NLRP3. Nature of the assay: Human whole blood IL1β release assay (LPS + nigericin, AlphaLisa IL-1β; HWB IC50). It is filed as cell-based. Also on record: Human whole blood in Li-heparin tubes was obtained from healthy donors from a volunteer donor panel; from tissue; host or cells: human whole blood from healthy donors. Particulars: IL-1β release. The method, boiled down: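 IL-1β in plasma supernatant quantified by AlphaLisa after nigericin (10 μM final, 1 h, 37 °C) triggering of human whole blood that had been preincubated 3 h with LPS (1 μg/ml) plus compound (half-log, 8 points, from 10 μM). IC50 by variable-slope four-parameter regression.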
(Bead proximity is the source of the signal in Alpha formats.)

Each structure is given as a SMILES string. Counter-ions that a name gives are not always drawn.

T1 sequence (Q96P20 whole entry): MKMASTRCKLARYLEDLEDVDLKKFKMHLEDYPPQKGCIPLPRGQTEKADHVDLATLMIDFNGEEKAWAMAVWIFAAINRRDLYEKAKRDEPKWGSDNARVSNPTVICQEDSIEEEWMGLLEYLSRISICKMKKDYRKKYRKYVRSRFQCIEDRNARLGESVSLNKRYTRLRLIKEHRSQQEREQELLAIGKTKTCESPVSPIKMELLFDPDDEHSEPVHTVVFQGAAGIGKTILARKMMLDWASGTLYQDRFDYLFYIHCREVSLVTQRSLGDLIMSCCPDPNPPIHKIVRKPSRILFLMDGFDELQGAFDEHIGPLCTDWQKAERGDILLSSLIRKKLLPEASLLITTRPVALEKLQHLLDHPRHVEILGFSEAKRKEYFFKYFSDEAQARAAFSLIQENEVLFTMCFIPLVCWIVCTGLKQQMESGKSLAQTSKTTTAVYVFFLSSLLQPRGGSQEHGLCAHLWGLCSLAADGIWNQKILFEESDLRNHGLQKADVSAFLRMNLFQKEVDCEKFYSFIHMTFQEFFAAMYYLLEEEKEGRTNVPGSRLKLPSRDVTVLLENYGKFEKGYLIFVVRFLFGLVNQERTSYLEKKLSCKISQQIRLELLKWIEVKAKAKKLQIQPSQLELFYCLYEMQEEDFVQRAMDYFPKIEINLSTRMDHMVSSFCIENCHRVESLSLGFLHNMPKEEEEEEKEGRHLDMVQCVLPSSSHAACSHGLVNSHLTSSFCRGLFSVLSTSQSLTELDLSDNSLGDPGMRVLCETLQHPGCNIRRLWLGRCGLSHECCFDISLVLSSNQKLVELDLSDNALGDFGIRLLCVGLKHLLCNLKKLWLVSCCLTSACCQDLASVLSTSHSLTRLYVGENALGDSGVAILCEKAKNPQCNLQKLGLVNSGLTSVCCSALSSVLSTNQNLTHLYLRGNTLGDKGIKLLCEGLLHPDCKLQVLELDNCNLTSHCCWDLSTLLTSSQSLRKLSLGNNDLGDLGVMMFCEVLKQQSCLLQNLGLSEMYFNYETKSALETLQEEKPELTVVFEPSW

The term IC50 denotes the concentration at which inhibition is half-maximal. For the compound `COCCN(CCOC)C(=O)c1cc(S(=O)(=O)NC(=O)Nc2c(-c3ccnc(OC(C)C)c3)cc(F)cc2C(C)C)nn1C` [Example 166, 3-(N-((4-Fluoro-2-(2-isopropoxypyridin-4-yl)-6-isopropyl-phenyl)carbamoyl)sulfamoyl)-N,N-bis(2-methoxyethyl)-1-methyl-1H-pyrazole-5-carboxamide, sodium salt], the IC50 on NLRP3 [1] is not above 5 µM; on NLRP3 [2] it was not above 10 µM.
`COCCN(CCOC)C(=O)c1cc(S(=O)(=O)NC(=O)Nc2c(-c3ccnc(OC)c3)ccc3c2CCC3)nn1C` [Example 167, N,N-Bis(2-methoxyethyl)-3-(N-((5-(2-methoxypyridin-4-yl)-2,3-dihydro-1H-inden-4-yl)carbamoyl)sulfamoyl)-1-methyl-1H-pyrazole-5-carboxamide, sodium salt]: the IC50 on NLRP3 [1] and on NLRP3 [2] was not above 0.5 µM throughout.
Consider `CC(C)Oc1cc(-c2cc(F)cc(C(C)C)c2NC(=O)NS(=O)(=O)c2cc(C(=O)N(C)C)n(C)n2)ccn1` [Example 168, 3-(N-((4-Fluoro-2-(2-isopropoxypyridin-4-yl)-6-isopropyl-phenyl)carbamoyl)sulfamoyl)-N,N,1-trimethyl-1H-pyrazole-5-carboxamide, sodium salt], for which the IC50 at NLRP3 [1] is not above 0.5 µM; at NLRP3 [2] it was not above 5 µM.
The like results for `COc1cc(-c2ccc3c(c2NC(=O)NS(=O)(=O)c2cc(C(=O)N(C)C)n(C)n2)CCC3)ccn1` [Example 169, 3-(N-((5-(2-Methoxypyridin-4-yl)-2,3-dihydro-1H-inden-4-yl)carbamoyl)sulfamoyl)-N,N,1-trimethyl-1H-pyrazole-5-carboxamide, sodium salt] were, in that order, not above 0.5 µM and not above 0.5 µM.
Consider `COc1cc(-c2cc(F)c3c(c2NC(=O)NS(=O)(=O)c2ccn(C4CC4)n2)CCC3)ccn1` [Example 170, 1-Cyclopropyl-N-((7-fluoro-5-(2-methoxypyridin-4-yl)-2,3-dihydro-1H-inden-4-yl)carbamoyl)-1H-pyrazole-3-sulfonamide, sodium salt], for which the IC50 is not above 0.5 µM at NLRP3 [1] and not above 1 µM at NLRP3 [2].
The like results for `COc1cc(-c2cc(C3CC3)c3c(c2NC(=O)NS(=O)(=O)c2ccn(C4CC4)n2)CCC3)ccn1` [Example 171, 1-Cyclopropyl-N-((7-cyclopropyl-5-(2-methoxypyridin-4-yl)-2,3-dihydro-1H-inden-4-yl)carbamoyl)-1H-pyrazole-3-sulfonamide, sodium salt] were, in that order, not above 0.5 µM and not above 5 µM.
In the same order, the values of `COc1cc(-c2cc(F)c3c(c2NC(=O)NS(=O)(=O)c2ccn(C4CCC4)n2)CCC3)ccn1` [Example 172, 1-Cyclobutyl-N-((7-fluoro-5-(2-methoxypyridin-4-yl)-2,3-dihydro-1H-inden-4-yl)carbamoyl)-1H-pyrazole-3-sulfonamide, sodium salt] are not above 0.5 µM and not above 1 µM.
The like results for `COc1cc(-c2cc(F)c3c(c2NC(=O)NS(=O)(=O)c2ccn(C(C)(C)CN4CCC4)n2)CCC3)ccn1` [Example 173, 1-(1-(Azetidin-1-yl)-2-methylpropan-2-yl)-N-((7-fluoro-5-(2-methoxypyridin-4-yl)-2,3-dihydro-1H-inden-4-yl)carbamoyl)-1H-pyrazole-3-sulfonamide, sodium salt] were, in that order, not above 0.5 µM and not above 0.5 µM.
Regarding `COc1cc(-c2ccc3c(c2NC(=O)NS(=O)(=O)CCOC(C)C)CCC3)ccn1` [Example 174, 2-Isopropoxy-N-((5-(2-methoxypyridin-4-yl)-2,3-dihydro-1H-inden-4-yl)carbamoyl)ethanesulfonamide, sodium salt], the IC50 at NLRP3 [1] is not above 0.5 µM; at NLRP3 [2], not above 1 µM.
The like results for `COc1cc(-c2ccc3c(c2NC(=O)NS(=O)(=O)CCOC(C)C)CCO3)ccn1` [Example 175, 2-Isopropoxy-N-((5-(2-methoxypyridin-4-yl)-2,3-dihydrobenzofuran-4-yl)carbamoyl)ethanesulfonamide, sodium salt] were, in that order, not above 0.5 µM and not above 0.5 µM.
For `COc1cc(-c2ccc3c(c2NC(=O)NS(=O)(=O)c2ccc(CN(C)C)nc2)CCC3)ccn1` [Example 176, 6-((Dimethylamino)methyl)-N-((5-(2-methoxypyridin-4-yl)-2,3-dihydro-1H-inden-4-yl)carbamoyl)pyridine-3-sulfonamide], the IC50 on NLRP3 [1] and on NLRP3 [2] was not above 0.5 µM in each case.
On to `COc1cc(-c2ccc3c(c2NC(=O)NS(=O)(=O)c2ccnc(CN(C)C)c2)CCC3)ccn1` [Example 177, 2-((Dimethylamino)methyl)-N-((5-(2-methoxypyridin-4-yl)-2,3-dihydro-1H-inden-4-yl)carbamoyl)pyridine-4-sulfonamide, sodium salt], for which the IC50 at NLRP3 [1] is not above 0.5 µM; at NLRP3 [2], not above 1 µM.
With `COc1cc(-c2ccc3c(c2NC(=O)NS(=O)(=O)c2ccnc(C(C)C)c2)CCC3)ccn1` [Example 178, 2-Isopropyl-N-((5-(2-methoxypyridin-4-yl)-2,3-dihydro-1H-inden-4-yl)carbamoyl)pyridine-4-sulfonamide, sodium salt], the IC50 at NLRP3 [1] is not above 0.5 µM; on NLRP3 [2] it was not above 5 µM.
In the same order, the values of `CC(C)n1ccc(S(=O)(=O)NC(=O)Nc2c(-c3cccnc3)ccc3c2CCCC3)n1` [Example 179, 1-Isopropyl-N-((2-(pyridin-3-yl)-5,6,7,8-tetrahydronaphthalen-1-yl)carbamoyl)-1H-pyrazole-3-sulfonamide] are not above 5 µM and not above 5 µM.
With `COc1cc(-c2ccc3c(c2NC(=O)NS(=O)(=O)c2ccn(C(C)(C)CN4CC(OC)C4)n2)CCC3)ccn1` [Example 180, 1-(1-(3-Methoxyazetidin-1-yl)-2-methylpropan-2-yl)-N-((5-(2-methoxypyridin-4-yl)-2,3-dihydro-1H-inden-4-yl)carbamoyl)-1H-pyrazole-3-sulfonamide], the IC50 at NLRP3 [1] and at NLRP3 [2] was not above 0.5 µM throughout.
`N#Cc1cc(-c2ccc3c(c2NC(=O)NS(=O)(=O)c2ccn(C4CCOC4)n2)CCC3)ccn1` (stereo not drawn) [Example 181, N-((5-(2-Cyanopyridin-4-yl)-2,3-dihydro-1H-inden-4-yl)carbamoyl)-1-(tetrahydrofuran-3-yl)-1H-pyrazole-3-sulfonamide, sodium salt]: the IC50 on NLRP3 [1] and at NLRP3 [2] was not above 0.5 µM throughout.
`C[C@@H](O)Cn1ccc(S(=O)(=O)NC(=O)Nc2c(-c3ccnc(C#N)c3)ccc3c2CCC3)n1` [Example 182, (R)-N-((5-(2-Cyanopyridin-4-yl)-2,3-dihydro-1H-inden-4-yl)carbamoyl)-1-(2-hydroxypropyl)-1H-pyrazole-3-sulfonamide, sodium salt]: the IC50 on NLRP3 [1] and at NLRP3 [2] was not above 0.5 µM each time.
On to `CC(C)(O)Cn1ccc(S(=O)(=O)NC(=O)Nc2c(-c3ccnc(C#N)c3)ccc3c2CCC3)n1` [Example 183, N-((5-(2-Cyanopyridin-4-yl)-2,3-dihydro-1H-inden-4-yl)carbamoyl)-1-(2-hydroxy-2-methylpropyl)-1H-pyrazole-3-sulfonamide, sodium salt], for which the IC50 at NLRP3 [1] and on NLRP3 [2] was not above 0.5 µM in each case.
With `COc1cc(-c2ccc3c(c2NC(=O)NS(=O)(=O)c2ccn(C[C@@H](C)O)n2)CCC3)ccn1` [Example 184, (R)-1-(2-Hydroxypropyl)-N-((5-(2-methoxypyridin-4-yl)-2,3-dihydro-1H-inden-4-yl)carbamoyl)-1H-pyrazole-3-sulfonamide], the IC50 at NLRP3 [1] and at NLRP3 [2] was not above 0.5 µM throughout.
In the case of `COc1cc(-c2ccc3c(c2NC(=O)NS(=O)(=O)c2ccn(CC(C)(C)OC)n2)CCC3)ccn1` [Example 185, 1-(2-Methoxy-2-methylpropyl)-N-((5-(2-methoxypyridin-4-yl)-2,3-dihydro-1H-inden-4-yl)carbamoyl)-1H-pyrazole-3-sulfonamide], the IC50 at NLRP3 [1] and on NLRP3 [2] was not above 0.5 µM in each case.
`COc1cc(-c2ccc3c(c2NC(=O)NS(=O)(=O)c2ccn(CC(C)(C)O)n2)CCC3)ccn1` [Example 186, 1-(2-Hydroxy-2-methylpropyl)-N-((5-(2-methoxypyridin-4-yl)-2,3-dihydro-1H-inden-4-yl)carbamoyl)-1H-pyrazole-3-sulfonamide]: the IC50 on NLRP3 [1] and at NLRP3 [2] was not above 0.5 µM throughout.
With `COc1cc(-c2ccc3c(c2NC(=O)NS(=O)(=O)c2ccn(C4CCOC4)n2)CCC3)ccn1` (stereo not drawn) [Example 187, N-((5-(2-Methoxypyridin-4-yl)-2,3-dihydro-1H-inden-4-yl)carbamoyl)-1-(tetrahydrofuran-3-yl)-1H-pyrazole-3-sulfonamide], the IC50 on NLRP3 [1] and on NLRP3 [2] was not above 0.5 µM throughout.
Consider `COc1cc(-c2ccc3c(c2NC(=O)NS(=O)(=O)c2cc(C4(OC)COC4)n(C)n2)CCC3)ccn1` [Example 188, 5-(3-Methoxyoxetan-3-yl)-N-((5-(2-methoxypyridin-4-yl)-2,3-dihydro-1H-inden-4-yl)carbamoyl)-1-methyl-1H-pyrazole-3-sulfonamide], for which the IC50 on NLRP3 [1] and on NLRP3 [2] was not above 0.5 µM each time.
`COc1cc(-c2ccc3c(c2NC(=O)NS(=O)(=O)c2ccn(C(C)(C)C(=O)N(C)C)n2)CCC3)ccn1` [Example 189, 2-(3-(N-((5-(2-Methoxypyridin-4-yl)-2,3-dihydro-1H-inden-4-yl)carbamoyl)sulfamoyl)-1H-pyrazol-1-yl)-N,N,2-trimethylpropanamide]: the IC50 on NLRP3 [1] and at NLRP3 [2] was not above 0.5 µM in each case.
